{"source": "paper PMC8571521", "about": "“^19F-NMR reveals substrate specificity of CYP121A1 in Mycobacterium tuberculosis” (The Journal of Biological Chemistry, 2021)", "key": {"CYP121A1 [1]": {"target": "T1, CYP121A1 (Mycobacterium tuberculosis, UniProt P9WPP7, S171C)", "T1 construct": "gene cyp121", "assay_type": "binding"}, "CYP121A1 [2]": {"target": "T2, CYP121A1 (Mycobacterium tuberculosis, UniProt P9WPP7, I166A/S171C/I180A)", "T2 construct": "gene cyp121", "assay_type": "binding"}}, "data": [{"molecule": "c1c[nH]cn1", "note": "[imidazole]", "values": [{"measurement": "19F-NMR titration (25-200 mM) with stepwise Soret shift", "setting": "CYP121A1 [1]", "value": "changes in the NMR spectra correlated closely with a stepwise shift in the Soret band of the protein"}, {"measurement": "19F-NMR titration with absorption (Soret) readout", "setting": "CYP121A1 [2]", "value": "in the I166A_I180A mutant, we observed rapid saturation for both of the NMR and wavelength absorption outputs"}]}]}
